Experimental findings from patent publication US10993993B2, “Pharmaceutical composition for treating muscle atrophy or sarcopenia including glucagon-like peptide (GLP-1) or GLP-1 receptor agonist” (IMMUNOFORGE CO., LTD., priority 2015, dated 2021) are described below.

Entries after “also recorded” stand apart in the source; their conditions may differ. Ends that are not written are not given here.

The subject of test [1] is muscle atrophy animal model (dexamethasone). Briefly: Body weight of dexamethasone-treated mice given sitagliptin or GLP-1(32-36)amide (Example 3-1). The test is classed as in vivo, C57BL/6J male mice. As to conditions: dexamethasone 20 mg/kg i.p.; sitagliptin 300 mg/kg oral gavage, GLP-1(32-36)amide 5 μg/kg i.p.; FIG. 6. On the procedure: (§1) The present inventors treated C57BL/6J male mice (n=10/group) with dexamethasone (20 mg/kg/i.p.) to reduce muscles of the mice, and they examined effects of sitagliptin (300 mg/kg/oral gavage) and GLP-1(32-36)amide (5 μg/kg/i.p.) on the body weights and muscles of the mice.

Test [2] has the same test system. Briefly: Muscle mass of dexamethasone-treated mice given sitagliptin or GLP-1(32-36)amide (Example 3-1). The test is classed as in vivo, C57BL/6J male mice. Particulars: dexamethasone 20 mg/kg i.p.; sitagliptin 300 mg/kg oral gavage, GLP-1(32-36)amide 5 μg/kg i.p.; FIG. 7. On the procedure: as §1
In test [3] the test system is myostatin and MyoD. Briefly: Myostatin and MyoD expression in dexamethasone-treated mice given sitagliptin or GLP-1(32-36)amide (Example 3-3). The test is classed as in vivo, C57BL/6J male mice. As to conditions: dexamethasone 20 mg/kg i.p.; sitagliptin 300 mg/kg oral gavage, GLP-1(32-36)amide 5 μg/kg i.p.; FIG. 9. On the procedure:
The present inventors treated C57BL/6J male mice (n=10/group) with dexamethasone (20 mg/kg/i.p.) to reduce muscles of the mice, and they examined effects of sitagliptin (300 mg/kg/oral gavage) and GLP-1(32-36)amide (5 μg/kg/i.p.) on the body weights and muscles of the mice. Therefore, the present inventors examined a change in the expression level of myostatin, which is a cause of muscle atrophy, and a change in the expression level of the muscle-producing factor MyoD by sitagliptin and GLP-1(32-36)amide.

Test [4] concerns muscle atrophy animal model (dexamethasone). Nature of the test: Grip strength of dexamethasone-treated mice given sitagliptin or GLP-1(32-36)amide (Example 3-2). Type of test: in vivo, C57BL/6J male mice. As to conditions: dexamethasone 20 mg/kg i.p.; sitagliptin 300 mg/kg oral gavage, GLP-1(32-36)amide 5 μg/kg i.p.; FIG. 8. On the procedure:
The present inventors treated C57BL/6J male mice (n=10/group) with dexamethasone (20 mg/kg/i.p.) to reduce muscles of the mice, and they examined effects of sitagliptin (300 mg/kg/oral gavage) and GLP-1(32-36)amide (5 μg/kg/i.p.) on the body weights and muscles of the mice. In detail, the grip strength when all of the paws of the mouse of Example 6 were pulled with the same force was measured by a grip strength machine.

For test [5], the system named is dexamethasone-induced muscle atrophy or sarcopenia mice. Briefly: Muscle mass of dexamethasone-treated mice given long-acting GLP-1(7-36) (Example 2-3). Type of test: in vivo, male C57BL6J mice. Particulars: dexamethasone 20 mg/kg i.p., Trulicity 1 mg/kg, PB1023 3 mg/kg s.c.; for total muscle mass: after three weeks, vs Dex-vehicle group, FIG. 12A. On the procedure: (§2) Specifically, 10-week-old male C57BL6J mice were divided into 10 mice per group (total n=40), and saline and dexamethasone (20 mg/kg) were each intraperitoneally administered to the control and experimental groups each day. The grip strength of the mice was measured on day 9.
(§3) Subsequently, on day 11, the control mice were administered with saline three times per week by subcutaneous injection (Co-vehicle group), whereas the comparative mice were administered with either (i) saline three times per week by subcutaneous injection (Dex-vehicle group), (ii) Trulicity (SEQ ID NO: 5) two times per week by subcutaneous injection (1 mg/kg; Trulicity group), or (iii) PB1023 three times per week by subcutaneous injection (3 mg/kg; PB1023 group).
(§4) Thereafter, the grip strength was measured and a four limb hanging test was performed on day 14, and tissue sampling was performed on day 22.

Test [6] has the same test system. Briefly: Grip strength of dexamethasone-treated mice given long-acting GLP-1(7-36) (Example 2-2). Type of test: in vivo, male C57BL6J mice. Particulars: dexamethasone 20 mg/kg i.p., Trulicity 1 mg/kg s.c. two times per week, PB1023 3 mg/kg s.c. three times per week, after two weeks, FIGS. 11A and 11B. On the procedure:
as §2, §3, §4

Test [7] relates to muscle atrophy-induced mice (dexamethasone). Briefly: Body weight of dexamethasone-induced muscle atrophy mice treated with exendin-4 (Example 1-1). Particulars: exendin-4 100 ng/mouse i.p. 12 days following dexamethasone 200 mg/kg i.p. 8 days; vs dexamethasone alone; from day 11; FIG. 1. The test is classed as in vivo, C57BL/6J male mice. On the procedure: It is known that muscle atrophy is caused by chronic diseases (chronic renal failure, chronic heart failure, chronic obstructive disease, etc.), and caused by administration of a high dose of a drug such as dexamethasone. Thus, animal models (C57BL/6J male mice) were treated with dexamethasone to prepare sarcopenia models. When sarcopenia occurred, effects of exendin-4 were investigated.
(§5) In detail, control mice which were not administered with dexamethasone or exendin-4, mice in which muscle atrophy was induced by intraperitoneal injection of dexamethasone (200 mg/kg) for 8 days, comparative mice which were intraperitoneally injected with exendin-4 (100 ng/mouse) for 12 days, and mice in which muscle atrophy was treated by intraperitoneal injection of exendin-4 (100 ng/mouse) for 12 days following intraperitoneal injection of dexamethasone (200 mg/kg) for 8 days were prepared. While these mice were raised for 20 days, changes in their body weights were measured (FIG. 1).

For test [8] the test system is unchanged. Nature of the test: Skeletal muscle weights of muscle atrophy-induced mice treated with exendin-4 (Example 1-2). The test is classed as in vivo, C57BL/6J male mice. As to conditions: exendin-4 100 ng/mouse i.p. 12 days following dexamethasone 200 mg/kg i.p. 8 days; FIG. 2. On the procedure:
as §5
The control mice (control), dexamethasone-induced muscle atrophy mice, exendin-4-treated comparative mice, and muscle atrophy-treated mice treated with exendin-4 following treatment of dexamethasone, which were prepared in Example 1-1, were sacrificed, and total weights of the skeletal muscles of the respective mice were measured. Quadratus muscles, gastrocnemus muscles, tibialis anterior muscles, soleus muscles, and extensor digitorum longus muscles constituting the skeletal muscles were each separated, and their weights were compared (FIG. 2).

Test [9] has as its system myostatin, atrogin-1, MuRF1, MyoD and myogenin genes. Nature of the test: Expression of muscle protein-destroying and -producing genes in muscle tissue, PCR (Example 1-4). Type of test: in vivo, C57BL/6J male mice. As to conditions: exendin-4 following dexamethasone, FIG. 4. On the procedure: as §5
It is known that when muscle atrophy occurs, expression of muscle protein-destroying genes (myostatin, atrogin-1, and MuRF1) is increased and expression of muscle protein-producing genes (MyoD and myogenin) is decreased; thus, this was to be examined That is, muscle tissues were removed from the control mice (control), dexamethasone-induced muscle atrophy mice, exendin-4-treated comparative mice, and muscle atrophy-treated mice treated with exendin-4 following treatment of dexamethasone, which were prepared in Example 1-1, and total RNAs were obtained from the muscle tissues. cDNAs were synthesized therefrom, each gene was amplified from the synthesized cDNA by PCR, and changes in the expression levels thereof were compared (FIG. 4).

The subject of test [10] is myostatin, atrogin-1, and MuRF1 in C2C12 myocytes. Nature of the test: Expression of muscle atrophy-related genes in dexamethasone-treated C2C12 myocytes (Example 1-5). As to conditions: 20 nM exendin-4 6 hours following 1 μM dexamethasone 12 hours, FIG. 5. The test is classed as cell-based. On the procedure: A myoblast cell line C2C12 was differentiated into myocytes by culturing in a medium containing 2% (v/v) horse serum for 5 days. Control myocytes (control) prepared from the differentiated myocytes without any treatment, myocytes in which muscle atrophy symptoms were induced by treatment of 1 μM dexamethasone for 12 hours, comparative myocytes treated with 20 nM exendin-4 for 6 hours, and experimental myocytes in which muscle atrophy symptoms were treated with 20 nM exendin-4 for 6 hours following treatment of 1 μM dexamethasone for 12 hours were each prepared. Expression levels of muscle atrophy-related genes (myostatin, atrogin-1, and MuRF1) were compared in each of the myocytes (FIG. 5).

Test [11] has as its system muscle atrophy-induced mice (dexamethasone). Nature of the test: Grip strength of muscle atrophy-induced mice treated with exendin-4 (Example 1-3). Particulars: exendin-4 100 ng/mouse i.p. 12 days following dexamethasone 200 mg/kg i.p. 8 days; FIG. 3. The test is classed as in vivo, C57BL/6J male mice. On the procedure: as §5
The control mice (control), dexamethasone-induced muscle atrophy mice, exendin-4-treated comparative mice, and muscle atrophy-treated mice treated with exendin-4 following treatment of dexamethasone, which were prepared in Example 1-1, were subjected to measurement of grip strength to investigate whether muscle functions were recovered (FIG. 3). In this regard, a force measured by a grip strength machine when all of the paws of a mouse were pulled with the same force was considered as the grip strength.

As to `N[C@@H](CC(=O)N1CCn2c(nnc2C(F)(F)F)C1)Cc1cc(F)c(F)cc1F` [sitagliptin], the body weight entry in test [1] is given as “increased”. Besides, in test [2], the muscle mass result is reported as “increased”. In [3], the MyoD expression result was “increased again” and the myostatin expression entry is on record as “decreased again”. For the same compound, in test [4], the grip strength entry is listed as “increased again”.

For the compound GLP-1(32-36)amide (LVKGR-NH2), in test [1], the body weight result was “increased”. For the same compound, the muscle mass result in test [2] is recorded as “increased”. Moreover, in [3], the MyoD expression entry is given as “increased again” and the myostatin expression result is reported as “decreased again”. In test [4], the grip strength result was “increased again”.

Regarding dulaglutide [Trulicity], the “muscle mass of EDL (Extensor digitorum longus) and QD (Quadratus)” value in test [5] (B to F of FIG. 12) is “statistical significance was confirmed by an increase in muscle mass”. Also, in test [5] (B to F of FIG. 12), the “muscle mass of TA (Tibialis anterior), Sol (Soleus), and GA (Gastrocnemius)” value is given as “tendency of increasing muscle mass”. The total muscle mass entry is given as “significantly increased compared to the Dex-vehicle group” in [5] and “muscle mass was increased” in [5] (listed as dulaglutide). In addition, the grip strength entry in [6] was “improved to a significant level”; in [6] (listed as dulaglutide), “enhanced”.

Turning to exendin-4, in [7], the body weight result is listed as “increase in the body weight was observed; also recorded: reduced body weight was restored”. In addition, the “skeletal muscle mass (all kinds of skeletal muscles)” value in [8] is reported as “increased muscle mass similar to that of the control or comparative group; also recorded: reduced skeletal muscle mass was restored”. In test [9], the “relative expression levels of muscle protein-destroying genes (myostatin, atrogin-1, and MuRF1)” value is on record as “lowest relative expression levels; also recorded: decreased”; the “relative expression levels of muscle protein-producing genes (MyoD and myogenin)” value is “highest relative expression levels; also recorded: increased”. For the same compound, the “expression levels of muscle atrophy-related genes (myostatin, atrogin-1, and MuRF1)” value in [10] is recorded as “remarkably decreased expression levels”. Further, the grip strength entry in [11] is on record as “remarkably higher level of grip strength than the muscle atrophy-induced mice; also recorded: reduced grip strength was restored”.
